In one test the target is ATX (Homo sapiens (Human), UniProt Q13822). In words: ATX enzyme inhibition assay (Amplex UltraRed/choline oxidase/HRP, 16:0 Lyso PC substrate). It is filed as biochemical. Summed up: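 ATX (2× stock […]) preincubated with compound for 10 min at room temperature in assay buffer at pH 8.5 or 7.5. Reaction started with 16:0 Lyso PC, choline oxidase, HRP and Amplex UltraRed (2.5× working stock); fluorescence read kinetically (ex 550/em 590 nm) for 60 min.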

The subject of test [1] is plasma LPA 18:1 and LPA 18:2. In words: Human plasma ex vivo assay (LPA 18:1 / 18:2 by LC-MS/MS). It is filed as biochemical. The note with it: 37° C., 2 hours. A digest of the protocol:
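Human plasma incubated 2 h at 37° C with compound (8 points, 1:3 dilution, top 10 μM, 0.1% DMSO), then quenched with 0.1% FA containing LPA 17:0 internal standard.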

Setting [2] is: assay buffer pH 7.5, read-out: IC50 (nM) pH 7.5.
The mark [3] stands for this setting: assay buffer pH 8.5, read-out: IC50 (nM) pH 8.5.
[4] abbreviates: LPA 18:1, read-out: Human plasma ex vivo assay IC50 (18:1 LPA).
The mark [5] stands for this setting: LPA 18:2, read-out: Human plasma ex vivo assay IC50 (18:2 LPA).

Structures are written as SMILES. Where two headings read alike, the source gives them in different places.

By IC50 is commonly meant the midpoint of a concentration-inhibition curve. Take `CN(c1nc(-c2ccc(F)cc2)c(C#N)s1)c1c2c(nc3c(F)cc(N4CCC5(CC4)CN(CC(=O)N4CC(O)C4)C5)cc13)CCC2` [Example A6]: the half-maximal inhibitory concentration (IC50) on ATX (setting [2]) was found to be 318 nM; on ATX (setting [3]), 44.7 nM; in test [1] (setting [4]), 182 nM; in test [1] (setting [5]), 184 nM.
Turning to `CN(c1nc(-c2ccc(F)cc2)c(C#N)s1)c1c2c(nc3ccc(N4CCN(CC(=O)N5CC(O)C5)CC4)cc13)CC2` [Example A7], the 50% inhibitory concentration (IC50) at ATX (setting [2]) turned out to be 85.1 nM; at ATX (setting [3]), 22.2 nM; in test [1] (setting [4]), 74.2 nM; in test [1] (setting [5]), 72.7 nM.
For `CN(c1nc(-c2ccc(F)cc2)c(C#N)s1)c1c2c(nc3cc(F)c(N4CCN(CC(=O)N5CC(O)C5)CC4)cc13)CCC2` [Example A8], the half-inhibitory concentration (IC50) is 883 nM at ATX (setting [2]), 64 nM on ATX (setting [3]), 248 nM in test [1] (setting [4]) and 271 nM in test [1] (setting [5]).
In the case of `CN(c1nc(-c2ccc(F)cc2)c(C#N)s1)c1c2c(nc3c(F)cc(N4CC5(CN(CC(=O)N6CC(O)C6)C5)C4)cc13)CCC2` [Example A9], the concentration for half-maximal inhibition (IC50) was determined as 699 nM on ATX (setting [2]), 86.8 nM at ATX (setting [3]), 351 nM in test [1] (setting [4]) and 323 nM in test [1] (setting [5]).
The matching figures for `CN(c1nc(-c2ccc(F)cc2)c(C#N)s1)c1c2c(nc3ccc(N4CCN(CC(=O)N5CC(O)C5)CC4)nc13)CCC2` [Example A10]: 559 nM, 60.7 nM, 192 nM and 157 nM.
The matching figures for `CN(c1nc(-c2ccc(F)cc2)c(C#N)s1)c1c2c(nc3c(F)cc(N4CC5(CCN(CC(=O)N6CC(O)C6)CC5)C4)cc13)CCC2` [Example A11]: 1180 nM, 145 nM, 299 nM and 359 nM.
The matching figures for `CN(c1nc(-c2ccc(F)cc2)c(C#N)s1)c1c2c(nc3ccc(N4CCN(CC(=O)N5CC(O)C5)CC4)nc13)CCO2` [Example A12]: 219 nM, 22.3 nM, 64.5 nM and 91.6 nM.
Regarding `Cc1cc(N2CCN(CC(=O)N3CC(O)C3)CC2)cc2c(N(C)c3nc(-c4ccc(F)cc4)c(C#N)s3)c3c(nc12)CCC3` [Example A14], the figures for the half-inhibitory concentration (IC50) (at ATX (setting [3]); in test [1] (setting [4]); in test [1] (setting [5])) were 228 nM, 304 nM and 338 nM, respectively.
Consider `CN(c1nc(-c2ccc(F)cc2)c(C#N)s1)c1c2c(nc3c(F)cc(N4CCN(CC(=O)N5CC(F)C5)CC4)cc13)CCC2` [Example A16], for which the IC50 at ATX (setting [2]) came to 282 nM; on ATX (setting [3]), 75.7 nM; in test [1] (setting [4]), 286 nM; in test [1] (setting [5]), 341 nM.
As to `CN(c1nc(-c2ccc(F)cc2)c(C#N)s1)c1c2c(nc3c(F)cc(N4CC5(CN(CC(=O)N6CC(O)C6)C5)C4)cc13)CC2` [Example A17], the concentration for half-maximal inhibition (IC50) at ATX (setting [3]) came to 48.7 nM; in test [1] (setting [4]), 164 nM; in test [1] (setting [5]), 172 nM.
In the case of `CN(c1nc(-c2ccc(F)cc2)c(C#N)s1)c1c2c(nc3c(F)cc(N4CC5(CN(CC(=O)N6CC(CO)C6)C5)C4)cc13)CC2` [Example A18], the IC50 amounted to 228 nM on ATX (setting [2]), 61.1 nM at ATX (setting [3]), 162 nM in test [1] (setting [4]) and 192 nM in test [1] (setting [5]).
On to `CN(c1nc(-c2ccc(F)cc2)c(C#N)s1)c1c2c(nc3c(F)cc(N4CCN(CC(=O)N5CC(O)C5)CC4)cc13)COC2` [Example A19], for which the IC50 at ATX (setting [2]) came out at 413 nM; at ATX (setting [3]), 52.7 nM; in test [1] (setting [4]), 118 nM; in test [1] (setting [5]), 132 nM.
The like results for `CN(c1nc(-c2ccc(F)cc2)c(C#N)s1)c1c2c(nc3cnc(N4CCN(CC(=O)N5CC(O)C5)CC4)cc13)CCC2` [Example A20] were, in that order, 645 nM, 84 nM, 170 nM and 203 nM.
Take `CN(c1nc(-c2ccc(F)cc2)c(C#N)s1)c1c2c(nc3ncc(N4CCN(CC(=O)N5CC(O)C5)CC4)cc13)CCC2` [Example A21]: the 50% inhibitory concentration (IC50) on ATX (setting [2]) was 125 nM; on ATX (setting [3]) it was 23.7 nM; in test [1] (setting [4]), 70.2 nM; in test [1] (setting [5]), 55.9 nM.
In the case of `CN(c1nc(-c2ccc(F)cc2)c(C#N)s1)c1c2c(nc3c(F)cc(N4CC5(CN(CC(=O)N6CC(O)C6)C5)C4)cc13)COC2` [Example A24], the half-maximal inhibitory concentration (IC50) turned out to be 181 nM on ATX (setting [3]), 466 nM in test [1] (setting [4]) and 486 nM in test [1] (setting [5]).
Take `CN(c1nc(-c2ccc(F)cc2)c(C#N)s1)c1c2c(nc3c(F)cc(N4CC5(CN(CC(=O)N6CC(CO)C6)C5)C4)cc13)CCC2` [Example A25]: the IC50 at ATX (setting [2]) was 541 nM; on ATX (setting [3]) it was 75 nM; in test [1] (setting [4]), 251 nM; in test [1] (setting [5]), 269 nM.
As for `CN(c1nc(-c2ccc(F)cc2)c(C#N)s1)c1c2c(nc3ccc(N4CCN(S(C)(=O)=O)C[C@@H]4CO)cc13)CCC2` [Example B1], the half-maximal inhibitory concentration (IC50) on ATX (setting [3]) is 112 nM; in test [1] (setting [4]) it was 176 nM; in test [1] (setting [5]), 169 nM.
Turning to `CN(c1nc(-c2ccc(F)cc2)c(C#N)s1)c1c2c(nc3ccc(N4CCN(S(C)(=O)=O)C[C@H]4CO)cc13)CCC2` [Example B2], the half-maximal inhibitory concentration (IC50) at ATX (setting [2]) was found to be 141 nM; on ATX (setting [3]), 58.8 nM; in test [1] (setting [4]) it was 177 nM; in test [1] (setting [5]) it was 201 nM.
Regarding `CN(c1nc(-c2ccc(F)cc2)c(C#N)s1)c1c2c(nc3c(F)cc(N4CCN(S(C)(=O)=O)[C@H](CO)C4)cc13)CCC2` [Example B3], the IC50 stood at 171 nM on ATX (setting [2]), 41.2 nM on ATX (setting [3]), 170 nM in test [1] (setting [4]) and 165 nM in test [1] (setting [5]).
The like results for `CN(c1nc(-c2ccc(F)cc2)c(C#N)s1)c1c2c(nc3c(F)cc(N4CCN(S(C)(=O)=O)[C@@H](CO)C4)cc13)CCC2` [Example B4] were, in that order, 611 nM, 66.5 nM, 219 nM and 253 nM.
As for `CN(c1nc(-c2ccc(F)cc2)c(C#N)s1)c1c2c(nc3c(F)cc(N4CC5(CN(C(=O)[C@@H]6CCOC6)C5)C4)cc13)CCC2` [Example C2], the IC50 at ATX (setting [2]) was 41.6 nM; at ATX (setting [3]), 23.8 nM; in test [1] (setting [4]), 402 nM; in test [1] (setting [5]), 365 nM.
Consider `CN(c1nc(-c2ccc(F)cc2)c(C#N)s1)c1c2c(nc3ncc(N4CC5(CN(C(=O)[C@H]6CCOC6)C5)C4)cc13)CCC2` [Example C3], for which the 50% inhibitory concentration (IC50) on ATX (setting [2]) amounted to 32 nM; at ATX (setting [3]) it was 22.7 nM; in test [1] (setting [4]), 141 nM; in test [1] (setting [5]), 135 nM.
For `CN(c1nc(-c2ccc(F)cc2)c(C#N)s1)c1c2c(nc3ncc(N4CC5(CN(C(=O)[C@@H]6CCOC6)C5)C4)cc13)CCC2` [Example C4], the 50% inhibitory concentration (IC50) at ATX (setting [2]) was 38.6 nM; on ATX (setting [3]), 27.4 nM; in test [1] (setting [4]), 114 nM; in test [1] (setting [5]) it was 89.2 nM.
The like results for `CN(c1nc(-c2ccc(F)cc2)c(C#N)s1)c1c2c(nc3c(F)cc(N4CCN(C(=O)[C@@H]5CCOC5)CC4)cc13)CCC2` [Example C6] were, in that order, 1230 nM, 196 nM, 232 nM and 264 nM.
As to `CN(c1nc(-c2ccc(F)cc2)c(C#N)s1)c1c2c(nc3c(F)cc(N4CCN(C(=O)[C@H]5CCOC5)CC4)cc13)CCC2` [Example C7], the IC50 was 1140 nM on ATX (setting [2]), 193 nM at ATX (setting [3]), 354 nM in test [1] (setting [4]) and 401 nM in test [1] (setting [5]).

Values taken from US20250051321A1, “TRICYCLIC DERIVATIVE AND PREPARATION METHOD THEREFOR AND APPLICATION THEREOF” (SHANGHAI JEMINCARE PHARMACEUTICAL CO., LTD., priority 2021, published 2025).
